From PubChem BioAssay (NCI)
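Grown in 96-well plates, cells were treated for 48 hours with each compound at five concentrations. Insufficient inhibition: endpoint recorded as highest concentration tested. GI50 is the concentration that inhibits growth by half. TGI denotes the concentration required for complete inhibition of growth.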

Experiments:
Test in all cases: NCI anticancer screen, dose series, 48 h
SK-MEL-28 melanoma = system: SK-MEL-28 melanoma
TK-10 renal = system: TK-10 renal
A498 renal = system: A498 renal
OVCAR-8 ovarian = system: OVCAR-8 ovarian
RPMI-8226 leukemia = system: RPMI-8226 leukemia
SF-539 CNS = system: SF-539 CNS
CCRF-CEM leukemia = system: CCRF-CEM leukemia
RXF 393 renal = system: RXF 393 renal
MCF7 breast = system: MCF7 breast
NCI/ADR-RES ovarian = system: NCI/ADR-RES ovarian

Row | Compound | TGI (SK-MEL-28 melanoma) [µM] | TGI (TK-10 renal) [µM] | TGI (A498 renal) [µM] | TGI (OVCAR-8 ovarian) [µM] | TGI (RPMI-8226 leukemia) [µM] | TGI (SF-539 CNS) [µM] | TGI (CCRF-CEM leukemia) [µM] | TGI (RXF 393 renal) [µM] | GI50 (SK-MEL-28 melanoma) [µM] | GI50 (TK-10 renal) [µM] | GI50 (A498 renal) [µM] | GI50 (OVCAR-8 ovarian) [µM] | GI50 (RPMI-8226 leukemia) [µM] | GI50 (SF-539 CNS) [µM] | GI50 (RXF 393 renal) [µM] | GI50 (MCF7 breast) [µM] | TGI (MCF7 breast) [µM] | GI50 (NCI/ADR-RES ovarian) [µM] | TGI (NCI/ADR-RES ovarian) [µM] | GI50 (CCRF-CEM leukemia) [µM]
1 | COc1ccccc1/C=C1\CCC(CNc2ccc(Cl)cc2)C1=O (stereo not drawn) | 26.4 | 18.6 | 27 | 20.7 | 6.72 | 16 | 19.7 | 30.3 | – | – | – | – | – | – | – | – | – | – | – | –
2 | CS(=O)(=O)OCCN1CCN(C(=O)c2cccc3c(Nc4ccc(S(N)(=O)=O)cc4)c4ccccc4nc23)CC1 | > 100 | > 100 | > 100 | > 100 | > 66.1 | > 100 | > 63 | > 100 | – | – | – | – | – | – | – | – | – | – | – | –
3 | Nc1ccc(-c2nc3ccccc3[nH]2)c(O)c1 | > 100 | 84 | 68.5 | > 100 | 52.3 | 53.1 | – | > 100 | 53.9 | 17.8 | 31.9 | 42.3 | 17 | 17.3 | 35.4 | 30.3 | > 100 | 27.8 | 81.1 | –
4 | Nc1ccc(N=Nc2ccccc2)c(N)n1 | – | > 100 | 39.8 | > 100 | > 100 | > 100 | > 100 | 60.7 | – | 41.2 | 12.9 | 37.5 | 36.2 | 29.9 | 20.3 | – | – | 31 | > 100 | 29.4
5 | CS(=O)(=O)N(CCC#N)c1ccc(/C=N/NC(=O)CC(=O)Nc2cccc(Cl)c2)cc1 | > 100 | > 100 | > 100 | > 100 | > 100 | > 100 | > 100 | > 100 | – | – | – | – | – | – | – | – | – | – | – | –
6 | N#CCCN(CCC#N)c1ccc(/C=C2\N=C(COc3ccc(Cl)cc3Cl)OC2=O)cc1 | > 100 | > 100 | > 100 | > 100 | > 100 | > 100 | > 100 | – | – | – | – | – | – | – | – | – | – | – | – | –
7 | COc1cc(N=Nc2ccccc2)cc(/C=N\[N-]C(N)=S)c1[O-].COc1cc(N=Nc2ccccc2)cc(/C=N\[N-]C(N)=S)c1[O-].[Fe+4] | > 100 | > 100 | – | > 100 | > 100 | > 100 | 92.6 | > 100 | 24.4 | 48.1 | – | 29.1 | 18.2 | 43.5 | 10.9 | – | – | – | – | 15.8
8 | C=C1C(=O)O[C@H]2[C@H]1CC/C(CNC(=O)/C=C/c1cccc(OC)c1)=C\CC[C@@]1(C)O[C@@H]21 | 4.23 | 2.5 | 5.85 | 8.07 | 4.97 | 2.98 | 5.29 | 2.33 | 1.74 | 1.15 | 1.82 | 2.19 | 1.31 | 1.27 | 1.05 | – | – | 3.79 | 17.8 | 0.419
9 | CSc1ccc(-c2cc(-c3ccc(NC(=O)CCCN4CCCC4)cc3)nc(-c3ccc(NC(=O)CCCN4CCCC4)cc3)c2)cc1 | 20.7 | 17.5 | – | 13.6 | 4.56 | 7.54 | 3.61 | 5.93 | 3.83 | 4.56 | – | 3.3 | 2.16 | 2.52 | 2.23 | – | – | 12.4 | 31.3 | 1.9
10 | CNS(=O)(=O)NN(C)S(=O)(=O)c1ccc(Cl)cc1 | – | > 100 | > 100 | > 100 | > 100 | > 100 | > 100 | > 100 | – | – | – | – | – | – | – | – | – | – | – | –
11 | OCCN(CCO)c1cccc(N(CCO)CCO)c1 | > 100 | > 100 | > 100 | > 100 | > 100 | – | > 100 | > 100 | – | – | – | – | – | – | – | – | – | – | – | –
12 | Cn1ccnc1C(c1nccn1C)C(C)(C)[N+](=O)[O-] | > 100 | > 100 | > 100 | > 100 | > 100 | > 100 | > 100 | > 100 | – | – | – | – | – | – | – | – | – | – | – | –
13 | Cn1c(=O)c(Oc2cccc(F)c2)cc2cnc(NC3CCOCC3)nc21 | > 25 | > 25 | > 25 | > 25 | > 25 | > 25 | – | > 25 | > 25 | > 22 | 8.11 | > 25 | > 25 | > 25 | > 25 | > 25 | > 25 | > 25 | > 25 | –
14 | O=C1CCC2CCc3cccc4oc1c2c34 (stereo not drawn) | > 100 | > 100 | > 100 | > 100 | > 100 | > 100 | > 100 | > 100 | – | – | – | – | – | – | – | – | – | – | – | –
15 | COc1cc(C(=O)/C=C/c2c(-c3ccc(F)cc3)nc3sc(C)cn23)cc(OC)c1OC | > 100 | > 100 | – | > 100 | > 100 | > 100 | > 100 | > 100 | 7.07 | 28 | – | 4.94 | 2.32 | 6.23 | 5.75 | 1.81 | > 100 | 2.63 | 15.8 | 7.19
16 | O=C1O[C@H](C(Cl)(Cl)Cl)N2CCCC12 (stereo partly drawn) | > 100 | > 100 | > 100 | > 100 | > 100 | > 100 | > 100 | > 100 | – | – | – | – | – | – | – | – | – | – | – | –
17 | O=[N+]([O-])c1cc(O)c(O)cc1-c1cn2ccsc2n1 | > 100 | > 100 | 62.3 | > 100 | > 100 | > 100 | – | > 100 | 55.5 | 66.5 | 25.3 | 52.5 | 54.6 | 71.1 | > 100 | 52.7 | > 100 | 50.6 | > 100 | –
18 | CC(C)COC(=O)N1N=NC2C3OC(CC3=O)C21 (stereo not drawn) | > 100 | > 100 | > 100 | > 100 | > 100 | > 100 | > 100 | > 100 | – | – | – | – | – | – | – | – | – | – | – | –
